± gives the standard deviation of the averaged measurements.
Test system: SK-ES-1
Assay: relative viability vs DMSO control (72 h) (fraction); higher = more viable cells
Summary of the method: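 Sarcoma cell lines were grown in 384-well plates seeded toward 80–90% confluence and exposed 24 h later to serially diluted compound. After 72 h at 37 °C and 5% CO2, with 0.1% DMSO vehicle and a 5 µM positive control on the plates, ATPLite was read. Relative viability, given as percent growth averaged over up to triplicate wells, was rescaled so that 1 is full and 0 is none.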

| Structure (SMILES) | relative viability (2 pM) | relative viability (5 pM) | relative viability (15 pM) | relative viability (50 pM) | relative viability (0.00014 µM) | relative viability (0.00041 µM) | relative viability (0.0012 µM) | relative viability (0.0037 µM) | relative viability (0.011 µM) | relative viability (200 fM) | relative viability (600 fM) | relative viability (0.00017 µM) | relative viability (0.00051 µM) | relative viability (0.00152 µM) | relative viability (0.00457 µM) | relative viability (0.01372 µM) | relative viability (0.04115 µM) | relative viability (0.1235 µM) | relative viability (0.3704 µM) | relative viability (1.111 µM) | relative viability (3.333 µM) | relative viability (10 µM) |
| --- | --- | --- | --- | --- | --- | --- | --- | --- | --- | --- | --- | --- | --- | --- | --- | --- | --- | --- | --- | --- | --- | --- |
| COc1cc2c(cc1O)CCN[C@]21CS[C@@H]2c3c(OC(C)=O)c(C)c4c(c3[C@H](COC1=O)N1[C@@H]2[C@H]2c3c(cc(C)c(OC)c3O)C[C@@H]([C@@H]1O)N2C)OCO4 [Trabectedin] | 0.945 ± 0.051 | 0.859 ± 0.046 | 0.643 ± 0.086 | 0.388 ± 0.069 | 0.169 ± 0.019 | 0.0592 ± 0.008 | 0.00217 ± 0.0018 | 3.33e-05 ± 0.00035 | 0.0054 ± 0.0013 | 1.02 ± 0.063 | 0.938 ± 0.031 | – | – | – | – | – | – | – | – | – | – | – |
| Nc1cc(C(F)(F)F)c(-c2cc(N3CCOCC3)nc(N3CCOCC3)n2)cn1 [Buparlisib] | – | – | – | – | – | – | – | – | – | – | – | 1.03 ± 0.025 | 1 ± 0.052 | 1.02 ± 0.037 | 1.04 ± 0.035 | 1.03 ± 0.029 | 1.04 ± 0.019 | 0.93 ± 0.033 | 0.749 ± 0.035 | 0.157 ± 0.014 | 0.041 ± 0.00093 | 0.0484 ± 0.0029 |
| CC(C)NC(=O)C1CCC(n2c(NC(=O)c3ccc(F)cc3)nc3ccc(CN4CCC(C(C)(C)O)CC4)cc32)CC1 (centres undefined) [Belizatinib] | – | – | – | – | – | – | – | – | – | – | – | 1.03 ± 0.038 | 1.02 ± 0.041 | 1.06 ± 0.031 | 1.05 ± 0.029 | 1.05 ± 0.039 | 1.08 ± 0.032 | 0.943 ± 0.065 | 0.633 ± 0.031 | 0.311 ± 0.013 | 0.208 ± 0.01 | 0.0946 ± 0.0023 |
| N#CC[C@H](C1CCCC1)n1cc(-c2ncnc3[nH]ccc23)cn1 [Ruxolitinib] | – | – | – | – | – | – | – | – | – | – | – | 0.926 ± 0.028 | 0.974 ± 0.027 | 0.96 ± 0.038 | 0.9617 ± 0.0031 | 0.942 ± 0.039 | 0.95 ± 0.049 | 0.933 ± 0.024 | 0.959 ± 0.044 | 0.932 ± 0.025 | 0.897 ± 0.05 | 0.812 ± 0.04 |

— the supplement of paper PMC10883282
